The subject of this assay is HCT 116 cells. Nature of the assay: CellTiter-Glo Luminescent Cell Viability Assay in HCT 116 cells. The class given is cell-based. Conditions: Homo sapiens, HCT-116, 120 h, HCT 116 human colon carcinoma cell viability, 120 h (5 days) incubation, 10 concentrations 30 μM to 0.0015 μM, triplicate. The text has this: CellTiter-Glo™ Assay in HCT 116 Cells
The CellTiter-Glo™ Luminescent Cell Viability Assay (Promega) is a homogeneous method of determining the number of viable cells in culture based on quantitation of the ATP present, which signals the presence of metabolically active cells.
HCT 116 cells (human colon carcinoma, ATCC-No. CCl1-247) were cultivated in RPMI 1640 medium with GlutaMAX™ I (Invitrogen, Cat-No. 61870-010), 2.5% Fetal Calf Serum (FCS, Sigma Cat-No. F4135 (FBS)); 100 Units/ml penicillin/100 μg/ml streptomycin (=Pen/Strep from Invitrogen Cat. No. 15140). For the assay the cells were seeded in 384 well plates, 1000 cells per well, in the same medium. The next day the test compounds were added in various concentrations ranging from 30 μM to 0.0015 μM (10 concentrations, 1:3 diluted). After 5 days the CellTiter-Glo™ assay was done according to the instructions of the manufacturer (CellTiter-Glo™ Luminescent Cell Viability Assay, from Promega). In brief: the cell-plate was equilibrated to room temperature for approximately 30 minutes and than the CellTiter-Glo™ reagent was added. The contents were carefully mixed for 15 minutes to induce cell lysis. After 45 minutes the luminescent signal was measured in Victor 2, (scanning multiwell spectrophotometer, Wallac).
Medium: RPMI 1640 with GlutaMAX™ I (Invitrogen, Cat-Nr. 61870), 5% FCS (Sigma Cat.-No. F4135), Pen/Strep (Invitrogen, Cat No. 15140).
HCT116 (ATCC-No. CCl-247): 1000 cells in 60 μl per well of 384 well plate (Greiner 781098, μClear-plate white)
After seeding incubate plates 24 h at 37° C., 5% CO2
2nd. Day: Induction (Treatment with Compounds, 10 Concentrations):
In order to achieve a final concentration of 30 μM as highest concentration 3,5 μl of 10 mM compound stock solution were added directly to 163 μl media. Then step e) of the dilution procedure described below, was followed.
In order to achieve the second highest to the lowest concentrations, a serial dilution with dilution steps of 1:3 was followed according to the procedure (a–e) as described here below: • a) for the second highest concentration add 10 μl of 10 mM stock solution of compound to 20 μl dimethylsulfoxide (DMSO) • b) dilute 8×1:3 (always 10 μl to 20 μl DMSO) in this DMSO dilution row (results in 9 wells with concentrations from 3333.3 μM to 0.51 μM) • c) dilute each concentration 1: 47.6 (3.5 μl compound dilution to 163 μl media) • e) add 10 μl of every concentration to 60 μl media in the cell plate resulting in final concentration of DMSO : 0.3% in every well and resulting in 10 final concentration of compounds ranging from 30 μM to 0.0015 μM. • Each compound is tested in triplicate. • Incubate 120 h (5 days) at 37° C., 5% CO2
Analysis: • Add 30 μl CellTiter-Glo™ Reagent per well, • shake 15 minutes at room temperature • incubate further 45 minutes at room temperature without shaking
Measurement: • Victor 2 scanning multiwell spectrophotometer (Wallac), Luminescence mode (0.5 sec/read, 477 nm) • Determine IC50 using a non-linear curve fit (XLfit software (ID Business Solution Ltd., Guilford, Surrey, UK))
In general terms: ATP-based viability assays read luminescence as a measure of living cells.

This is an account of results in patent US7208506B2, “Heteroarylethenyl derivatives, their manufacture and use as pharmaceutical agents” (Hoffmann-La Roche Inc., priority 2005, dated 2007).

pIC50: −log10 of the molar value. Where a name gives a salt, the structure may show the parent alone.

Broadly, the pIC50 is the IC50 on a negative log10 scale, so that one unit is a factor of ten. Read a low pIC50 as a high IC50.

In turn, `O=C(NS(=O)(=O)/C=C/c1cncnc1)c1ccc(Cl)cc1Cl` [Example 2-18, (E)-2-Pyrimidin-5-yl-ethenesulfonic acid 2,4-dichloro-benzoylamide; sodium salt] had a negative logarithm of the IC50 (pIC50) of 4.82 to 6.30.
`COc1ccc(/C=C/S(=O)(=O)NC(=O)c2ccc(Cl)cc2C)cn1` [Example 4-12, (E)-2-(6-Methoxy-pyridin-3-yl)-ethenesulfonic acid 4-chloro-2-methyl-benzoylamide; sodium salt]: the pIC50 is 4.82 to 6.30.
Compound `O=C(NS(=O)(=O)/C=C/c1ccsc1)c1ccc(F)cc1Br` [Example 3-9, (E)-2-Thiophen-3-yl-ethenesulfonic acid 2-bromo-4-fluoro-benzoylamide; sodium salt] had a negative logarithm of the IC50 (pIC50) of 4.82 to 6.30.
`COc1ccc(/C=C/S(=O)(=O)NC(=O)c2ccc(F)cc2Cl)cn1` [Example 2-10, (E)-2-(6-Methoxy-pyridin-3-yl)-ethenesulfonic acid 2-chloro-4-fluoro-benzoylamide; sodium salt]: the negative logarithm of the IC50 (pIC50) is 4.82 to 6.30.
With `O=C(NS(=O)(=O)/C=C/c1cccnc1)c1ccc(C(F)(F)F)cc1C(F)(F)F` [Example 2-14, (E)-2-Pyridin-3-yl-ethenesulfonic acid 2,4-bis-trifluoromethyl-benzoylamide; sodium salt] the figure was 4.82 to 6.30.
For `Cc1cc(Cl)ccc1C(=O)NS(=O)(=O)/C=C/c1csc2ccccc12` [Example 4-18, (E)-2-Benzo[b]thiophen-3-yl-ethenesulfonic acid 4-chloro-2-methyl-benzoylamide; sodium salt], the negative-log IC50 (pIC50) is 4.82 to 6.30.
With `Cc1cc(F)ccc1C(=O)NS(=O)(=O)/C=C/c1cccs1` [Example 5-1, (E)-2-Thiophen-2-yl-ethenesulfonic acid 4-fluoro-2-methyl-benzoylamide], the negative-log IC50 (pIC50) was 4.82 to 6.30.
Consider `Cc1cc(Br)ccc1C(=O)NS(=O)(=O)/C=C/c1ccsc1` [Example 3-5, (E)-2-Thiophen-3-yl-ethenesulfonic acid 4-bromo-2-methyl-benzoylamide; sodium salt], for which the pIC50 was 4.82 to 6.30.
Take `Cc1cc(Cl)ccc1C(=O)NS(=O)(=O)/C=C/c1ccccn1` [Example 4-2, (E)-2-Pyridin-2-yl-ethenesulfonic acid 4-chloro-2-methyl-benzoylamide; sodium salt]: the negative-log IC50 (pIC50) is 4.82 to 6.30.
The compound `O=C(NS(=O)(=O)/C=C/c1cccnc1)c1ccc(Cl)cc1Cl` [Example 2-1, (E)-2-Pyridin-3-yl-ethenesulfonic acid 2,4-dichloro-benzoylamide; sodium salt] gave a pIC50 of 5.47.
For `O=C(NS(=O)(=O)/C=C/c1cccnc1)c1ccc(Br)cc1Cl` [Example 4-11, (E)-2-Pyridin-3-yl-ethenesulfonic acid 4-bromo-2-chloro-benzoylamide; sodium salt], the negative logarithm of the IC50 (pIC50) is 4.82 to 6.30.
`COc1cc(Cl)ccc1C(=O)NS(=O)(=O)/C=C/c1cccnc1` [Example 4-1, (E)-2-Pyridin-3-yl-ethenesulfonic acid 4-chloro-2-methoxy-benzoylamide; sodium salt] gave a negative-log IC50 (pIC50) of 4.82 to 6.30.
With `COc1cc(Cl)ccc1C(=O)NS(=O)(=O)/C=C/c1ccsc1` [Example 3-4, (E)-2-Thiophen-3-yl-ethenesulfonic acid 4-chloro-2-methoxy-benzoylamide; sodium salt] the figure was 4.82 to 6.30; with `O=C(NS(=O)(=O)/C=C/c1csc2ccccc12)c1ccc(C(F)(F)F)cc1C(F)(F)F` [Example 2-29, (E)-2-Benzo[b]thiophen-3-yl-ethenesulfonic acid 2,4-ditrifluoromethyl-benzoylamide; sodium salt], 4.82 to 6.30; with `O=C(NS(=O)(=O)/C=C/c1ccsc1)c1ccc(C(F)(F)F)cc1C(F)(F)F` [Example 1-6, (E)-2-Thiophen-3-yl-ethenesulfonic acid 2,4-bis-trifluoromethyl-benzoylamide; sodium salt], 4.82 to 6.30.
In turn, `O=C(NS(=O)(=O)/C=C/c1ccsc1)c1ccc(F)cc1C(F)(F)F` [Example 1-5, (E)-2-Thiophen-3-yl-ethenesulfonic acid 4-fluoro-2-trifluoromethyl-benzoylamide; sodium salt] showed a negative-log IC50 (pIC50) of 4.82 to 6.30.
Take `Cc1ccc(C(=O)NS(=O)(=O)/C=C/c2ccsc2)c(C)c1` [Example 3-14, (E)-2-Thiophen-3-yl-ethenesulfonic acid 2,4-dimethyl-benzoylamide; sodium salt]: the negative logarithm of the IC50 (pIC50) was 4.82 to 6.30.
As for `O=C(NS(=O)(=O)/C=C/c1cccnc1)c1ccc(F)cc1C(F)(F)F` [Example 2-9, (E)-2-Pyridin-3-yl-ethenesulfonic acid 4-fluoro-2-trifluoromethyl-benzoylamide; sodium salt], the negative-log IC50 (pIC50) was 4.82 to 6.30.
Take `COc1ccc(/C=C/S(=O)(=O)NC(=O)c2ccc(Cl)cc2Cl)cn1` [Example 2-4, (E)-2-(6-Methoxy-pyridin-3-yl)-ethenesulfonic acid 2,4-dichloro-benzoylamide; sodium salt]: the negative logarithm of the IC50 (pIC50) is 5.30.
As to `O=C(NS(=O)(=O)/C=C/c1ccccn1)c1ccc(F)cc1Br` [Example 4-6, (E)-2-Pyridin-2-yl-ethenesulfonic acid 2-bromo-4-fluoro-benzoylamide; sodium salt], the pIC50 was 4.82 to 6.30.
In turn, `O=C(NS(=O)(=O)/C=C/c1ccccn1)c1ccc(F)cc1C(F)(F)F` [Example 2-7, (E)-2-Pyridin-2-yl-ethenesulfonic acid 4-fluoro-2-trifluoromethyl-benzoylamide; sodium salt] showed a negative-log IC50 (pIC50) of 4.82 to 6.30.
Consider `Cc1ccc(C(=O)NS(=O)(=O)/C=C/c2ccsc2)c(Br)c1` [Example 3-7, (E)-2-Thiophen-3-yl-ethenesulfonic acid 2-bromo-4-methyl-benzoylamide; sodium salt], for which the pIC50 is 4.82 to 6.30.
The compound `Cc1cc(Cl)ccc1C(=O)NS(=O)(=O)/C=C/c1cccnc1` [Example 4-8, (E)-2-Pyridin-3-yl-ethenesulfonic acid 4-chloro-2-methyl-benzoylamide; sodium salt] had a pIC50 of 4.82 to 6.30.
Consider `O=C(NS(=O)(=O)/C=C/c1ccc(Cl)nc1)c1ccc(Cl)cc1Cl` [Example 2-20, (E)-2-(6-Chloro-pyridin-3-yl)-ethenesulfonic acid 2,4-dichloro-benzoylamide; sodium salt], for which the pIC50 was 4.82 to 6.30.
For the compound `Cc1ccc(C(=O)NS(=O)(=O)/C=C/c2cccs2)c(C)c1` [Example 3-13, (E)-2-Thiophen-2-yl-ethenesulfonic acid 2,4-dimethyl-benzoylamide; sodium salt], the negative logarithm of the IC50 (pIC50) is 4.82 to 6.30.
With `O=C(NS(=O)(=O)/C=C/c1nccs1)c1ccc(Cl)cc1Cl` [Example 2-22, (E)-2-Thiazol-2-yl-ethenesulfonic acid 2,4-dichloro-benzoylamide; sodium salt] the figure was 4.82 to 6.30.
Compound `Cc1cccc(/C=C/S(=O)(=O)NC(=O)c2ccc(F)cc2Br)n1` [Example 4-15, (E)-2-(6-Methyl-pyridin-2-yl)-ethenesulfonic acid 2-bromo-4-fluoro-benzoylamide; sodium salt] had a pIC50 of 4.82 to 6.30.
The compound `Cc1noc(C)c1/C=C/S(=O)(=O)NC(=O)c1ccc(Cl)cc1Cl` [Example 1-11, (E)-2-(3,5-Dimethyl-isoxazol-4-yl)-ethenesulfonic acid 2,4-dichloro-benzoylamide; sodium salt] had a negative-log IC50 (pIC50) of 4.82 to 6.30.
`COc1cc(Cl)ccc1C(=O)NS(=O)(=O)/C=C/c1cccs1` [Example 3-1, (E)-2-Thiophen-2-yl-ethenesulfonic acid 4-chloro-2-methoxy-benzoylamide; sodium salt] had a negative logarithm of the IC50 (pIC50) of 4.82 to 6.30.
To `Cc1csc(/C=C/S(=O)(=O)NC(=O)c2ccc(Cl)cc2Cl)c1` [Example 1-10, (E)-2-(4-Methyl-thiophen-2-yl)-ethenesulfonic acid 2,4-dichloro-benzoylamide] belongs 4.82 to 6.30.
